Columns and labels:
[1] = molecular target: T1, lysine methyltransferase SET8 (Homo sapiens, UniProt Q9NQR1); experiment: SET8 methyltransferase inhibitor screening assay kit (Cayman), fluorescence; type: biochemical; conditions: incubation at 37° C. for 10 min; inhibitor concentration not given
T1 construct: purchased Cayman Company
T1 sequence (Q9NQR1 1-393): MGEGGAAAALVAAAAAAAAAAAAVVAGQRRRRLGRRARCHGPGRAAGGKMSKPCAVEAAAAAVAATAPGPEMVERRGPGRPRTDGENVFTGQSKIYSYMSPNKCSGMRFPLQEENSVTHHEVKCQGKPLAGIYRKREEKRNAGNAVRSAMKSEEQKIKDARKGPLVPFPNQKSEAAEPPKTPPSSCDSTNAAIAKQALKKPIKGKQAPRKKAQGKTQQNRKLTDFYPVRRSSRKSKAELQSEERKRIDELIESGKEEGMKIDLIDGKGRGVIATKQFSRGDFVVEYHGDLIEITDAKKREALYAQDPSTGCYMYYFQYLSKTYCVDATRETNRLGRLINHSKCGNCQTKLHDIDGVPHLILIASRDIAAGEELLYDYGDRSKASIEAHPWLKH
Procedure: The steps of activity detection are completely based on the SET8 methyltransferase inhibitor screening assay kit of Cayman Company. In short, reagents in the kit are added to the 96-well plate to be tested according to the Table A below.
Then 10 μL of SET8 albumen protein is added to each well, and the reaction begins. After incubation at 37° C. for 10 min, the fluorescence intensity (A) value is measured at the excitation wavelength of 535 nm and the […] of 590 nm. the inhibition rate of the compound is calculated according to the following formula: Inhibition rate %=(Anormal−Asample)/)Normal*100%, and the inhibition rate of each inhibitor on lysine methyltransferase is shown in Table 1.

glioma cell line SH-SY5Y = experiment: CCK-8 cell proliferation inhibition test, SH-SY5Y; type: cell-based; conditions: Homo sapiens, 48 h; for inhibition at 100 µM: read-out: IC % for 100 μM; for IC50: CCK-8
Procedure: (§1) 1. Experimental Method: […] cell line SH-SY5Y, colorectal cancer cell line SW480 and liver cancer cell line HepG2 are respectively cultured in an RPMI-1640 medium containing 10% calf serum at 37° C. in a 5% CO2 incubator. The […] method is adopted for cell proliferation inhibition test, and the main operation is as follows: taking the tumor cell line in the logarithmic phase, digesting with 0.25% trypsin, preparing an RPMI-1640 medium containing 10% newborn calf serum into a cell suspension of 6×10^4 cells/mL, and inoculating the cell suspension into a 96-well plate, with 100 μL per well. Culturing at 37° C. and 5% CO2 saturated humidity for 12 h. After adherence, absorbing the culture supernatants in the wells, and adding the sample solution prepared from the RPMI-1640 medium containing 1% calf serum to each well so that the final concentrations of the samples are 100 μM, 30 μM, 10 μM, 3 μM, 1 μM, and 0.3 μM respectively. With 3 wells in parallel for each concentration, continuing culturing for 48 h, then adding 10 μL of CCK-8 solution (Dalian Meilun, MA0218) to each well, and continuing incubating at 37° C. and 5% CO2 for 4 h. Selecting 470 nm on the enzyme-linked immunosorbent assay apparatus to measure the light absorption value of each well, and setting a blank group (only adding a culture solution containing cells) and a control group (using the culture solution to replace drugs) to calculate the cell proliferation inhibition rate. Inhibition rate (%)=(1−average OD value of 3 wells in experimental group/average OD value of 3 wells in control group)×100%. With the inhibition rate as an ordinate, a regression curve is drawn to calculate the IC50 value of the sample. Graphpad prism 7.0 software are adopted for data processing and statistical analysis by.

[2] = system: colorectal cancer cell line SW480; experiment: CCK-8 cell proliferation inhibition test, SW480; type: cell-based; conditions: for IC50: Homo sapiens, SW480, 48 h, CCK-8; for IC % for 100 μM: SW480, 100 μM, 48 h; for tumor cell proliferation inhibitory activity (in words): SW480, summary of Table 2
Procedure: as §1

[3] = system: liver cancer cell line HepG2; experiment: CCK-8 cell proliferation inhibition test, HepG2; type: cell-based; conditions: for IC % for 100 μM: HepG2, 100 μM, 48 h; for tumor cell proliferation inhibitory activity (in words): HepG2, summary of Table 2; for IC50: Homo sapiens, HepG2, 48 h, CCK-8
Procedure: as §1

Row | Structure (SMILES) | Inhibition Rate (%) [1] | inhibition at 100 µM (glioma cell line SH-SY5Y) | IC50 (glioma cell line SH-SY5Y) | IC50 [2] | IC % for 100 μM [2] | tumor cell proliferation inhibitory activity (in words) [2] | IC % for 100 μM [3] | tumor cell proliferation inhibitory activity (in words) [3] | IC50 [3]
1 | CN1CCC(n2nc(-c3ccccc3)nc2C2CNCCO2)CC1 (stereo not drawn) [Compound 15, 2-(1-(1-methylpiperidin-4-yl)-3-phenyl-1H-1,2,4-triazol-5-yl)morpholine] | 53.9% | 52.3% | 95.3 µM |  |  |  |  |  | 
2 | COc1ccc(Cc2nc(C3CCCCC3)n(Cc3ccc(OC)cc3)n2)cc1 [Compound 21, 5-cyclohexyl-1,3-dis(4-methoxybenzyl)-1H-1,2,4-triazole] | 43.7% | 46.2% | 114 µM |  |  |  |  |  | 
3 | COc1ccc(Cc2nc(C3CNCCO3)n(-c3ccccc3)n2)cc1 (stereo not drawn) [Compound 4, 2-(3-(4-methoxybenzyl)-1-phenyl-1H-1,2,4-triazol-5-yl)morpholine] | 71.5% | 57.8% | 78.6 µM |  |  |  |  |  | 
4 | COc1ccc(Cc2nc(C3CNCCO3)n(C3CCCCC3)n2)cc1 (stereo not drawn) [Compound 3, 2-(1-cyclohexyl-3-(4-methoxybenzyl)-1H-1,2,4-triazol-5-yl)morpholine] | 70.0% | 76.5% | 22.6 µM | 18.3 µM | 73.2% | good tumor cell proliferation inhibitory activity | 48.8% | good tumor cell proliferation inhibitory activity | 19.2 µM
5 | COc1ccc(Cc2nc(C3CCCCO3)n(C3CCN(C)CC3)n2)cc1 (stereo not drawn) [Compound 10, 4-(3-(4-methoxybenzyl)-5-(tetrahydro-2H-pyran-2-yl)-1H-1,2,4-triazol-5-yl)-1-methylpiperidin] | 43.6% | 43.3% | 123 µM |  |  |  |  |  | 
6 | COc1ccc(Cc2nc(CN)n(C3CCN(C)CC3)n2)cc1 [Compound 11, (3-(4-methoxybenzyl)-1-(1-methylpiperidin-4-yl)-1H-1,2,4-triazol-5-yl)methylamine] | 36.8% | 39.9% | 132 µM |  |  |  |  |  | 
7 | CN1CCC(n2nc(Cc3ccccc3)nc2C2CNCCO2)CC1 (stereo not drawn) [Compound 14, 2-(3-benzyl-1-(1-methylpiperidin-4-yl)-1H-1,2,4-triazol-5-yl)morpholine] | 59.2% | 53.2% | 92.5 µM |  |  |  |  |  | 
8 | COc1ccc(Cc2nc(C3CNCCO3)n(-c3cccc(C)c3)n2)cc1 (stereo not drawn) [Compound 5, 2-(3-(4-methoxybenzyl)-1-(m-methylphenyl)-1H-1,2,4-triazol-5-yl)morpholine] | 70.2% | 57.1% | 81.3 µM |  |  |  |  |  | 
9 | Cc1cccc(-c2nc(C3CNCCO3)n(C3CCN(C)CC3)n2)c1 (stereo not drawn) [Compound 17, 2-(1-(1-methylpiperidin-4-yl)-3-(m-methylphenyl)-1H-1,2,4-triazol-5-yl)morpholine] | 58.3% | 53.7% | 92.1 µM |  |  |  |  |  | 
10 | COc1ccc(Cc2nc(C3CCCCC3)n(C3CCN(C)CC3)n2)cc1 [Compound 18, 4-(5-cyclohexyl-3-(4-methoxybenzyl)-1H-1,2,4-triazol-5-yl)-1-methylpiperidin] | 43.8% | 41.9% | 126 µM |  |  |  |  |  | 
11 | COc1ccc(Cc2nc(C3CNCCO3)n(-c3cnccn3)n2)cc1 (stereo not drawn) [Compound 7, 2-(3-(4-methoxybenzyl)-1-(pyrazin-2-yl)-1H-1,2,4-triazol-5-yl)morpholine] | 70.8% | 57.9% | 78.4 µM |  |  |  |  |  | 
12 | COc1ccc(Cc2nc(C3CNCCO3)n(C3CCN(C)CC3)n2)cc1 (stereo not drawn) [Compound 1, 2-(3-(4-methoxybenzyl)-1-(1-methylpiperidin-4-yl)-1H-1,2,4-triazol-5-yl)morpholine] | 58.4% | 52.5% | 94.7 µM |  |  |  |  |  | 
13 | COc1ccc(Cc2nc(C)n(C3CCN(C)CC3)n2)cc1 [Compound 20] | 76.9% | 84.7% | 10.4 µM | 11.3 µM | 79.6% | good tumor cell proliferation inhibitory activity | 68.7% | good tumor cell proliferation inhibitory activity | 13.6 µM
14 | COc1ccc(Cn2nc(-c3ccccc3)nc2C2CNCCO2)cc1 (stereo not drawn) [Compound 13, 2-(1-(4-methoxybenzyl)-3-phenyl-1H-1,2,4-triazol-5-yl)morpholine] | 32.5% | 37.8% | 138 µM |  |  |  |  |  | 
15 | COc1ccc(Cc2nc(C3CN(Cc4ccccc4)CCO3)n(C3CCN(C)CC3)n2)cc1 (stereo not drawn) [Compound 9, 4-benzyl-2-(3-(4-methoxybenzyl)-1-(1-methylpiperidin-4-yl)-1H-1,2,4-triazol-5-yl)morpholine] | 72.3% | 58.5% | 77.3 µM |  |  |  |  |  | 
16 | COc1ccc(Cc2nc(C3CNCCO3)n(-c3ccccn3)n2)cc1 (stereo not drawn) [Compound 6, 2-(3-(4-methoxybenzyl)-1-(pyridin-2-yl)-1H-1,2,4-triazol-5-yl)morpholine] | 70.3% | 58.6% | 76.5 µM |  |  |  |  |  | 
17 | COc1ccc(Cc2nc(C3CNCCO3)n(C)n2)cc1 (stereo not drawn) [Compound 8, 2-(3-(4-methoxybenzyl)-1-methyl-1H-1,2,4-triazol-5-yl)morpholine] | 69.3% | 59.5% | 73.1 µM |  |  |  |  |  | 
18 | COc1ccc(Cc2nc(C3CCCCO3)n(Cc3ccc(OC)cc3)n2)cc1 (stereo not drawn) [Compound 12, 1,3-bis(4-methoxybenzyl)-5-(tetrahydro-2H-pyran-2-yl)-1H-1,2,4-triazole] | 67.8% | 60.1% | 71.8 µM |  |  |  |  |  | 
19 | Cc1ccc(-c2nc(C3CNCCO3)n(C3CCN(C)CC3)n2)cc1 (stereo not drawn) [Compound 16, 2-(1-(1-methylpiperidin-4-yl)-3-(p-methylphenyl)-1H-1,2,4-triazol-5-yl)morpholine] | 54.8% | 52.8% | 93.7 µM |  |  |  |  |  | 
20 | COc1ccc(Cc2nc(C(C)(C)C)n(C3CCN(C)CC3)n2)cc1 [Compound 19] | 45.2% | 44.8% | 118 µM |  |  |  |  |  | 
21 | COc1ccc(Cc2nc(C3CNCCO3)n(Cc3ccc(OC)cc3)n2)cc1 (stereo not drawn) [Compound 2, 2-(1,3-bis(4-methoxybenzyl)-1H-1,2,4-triazol-5-yl)morpholine] | 74.2% | 78.3% | 13.7 µM | 16.4 µM | 75.8% | good tumor cell proliferation inhibitory activity | 51.5% | good tumor cell proliferation inhibitory activity | 17.6 µM

— patent US12281107B2, “SET8 lysine methyltransferase inhibitor and preparation method and application thereof” (HAINAN YILING MEDICAL INDUSTRY & DEVELOPMENT Co., Ltd., priority 2019, dated 2025)
